For the first data set, the target named is T1, Class 1 phosphodiesterase PDEB1 (Trypanosoma brucei) (UniProt Q8WQX9).
T1 sequence (whole entry): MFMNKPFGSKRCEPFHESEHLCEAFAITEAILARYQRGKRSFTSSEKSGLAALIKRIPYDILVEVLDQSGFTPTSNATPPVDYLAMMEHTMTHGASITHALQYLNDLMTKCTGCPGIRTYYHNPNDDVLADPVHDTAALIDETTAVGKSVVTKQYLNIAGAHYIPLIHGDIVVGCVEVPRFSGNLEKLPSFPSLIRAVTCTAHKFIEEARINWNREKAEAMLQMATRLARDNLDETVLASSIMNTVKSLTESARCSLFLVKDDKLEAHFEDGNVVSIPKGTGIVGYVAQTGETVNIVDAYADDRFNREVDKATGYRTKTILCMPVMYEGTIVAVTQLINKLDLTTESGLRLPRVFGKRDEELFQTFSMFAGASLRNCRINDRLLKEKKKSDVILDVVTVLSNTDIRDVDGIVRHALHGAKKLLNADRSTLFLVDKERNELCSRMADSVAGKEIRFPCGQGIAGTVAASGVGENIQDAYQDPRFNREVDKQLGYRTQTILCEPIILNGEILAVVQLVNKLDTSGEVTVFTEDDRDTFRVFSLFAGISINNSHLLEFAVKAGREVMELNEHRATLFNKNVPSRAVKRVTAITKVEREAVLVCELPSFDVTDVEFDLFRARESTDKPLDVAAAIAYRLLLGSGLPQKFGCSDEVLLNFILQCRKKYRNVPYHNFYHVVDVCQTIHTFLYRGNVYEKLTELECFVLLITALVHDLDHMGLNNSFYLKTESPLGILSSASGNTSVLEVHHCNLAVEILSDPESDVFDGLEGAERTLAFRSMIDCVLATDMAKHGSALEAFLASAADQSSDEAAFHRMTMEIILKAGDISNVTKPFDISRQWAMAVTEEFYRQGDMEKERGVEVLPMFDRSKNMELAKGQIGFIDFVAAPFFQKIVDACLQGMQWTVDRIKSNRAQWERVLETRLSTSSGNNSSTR
Briefly: Inhibition of Trypanosoma brucei PDEB1 using cAMP as substrate at 100 uM preincubated for 10 mins prior substrate addition by spectrophotometry.
In the case of `CN1CC(=O)N2C(c3cccnc3)c3[nH]c4ccccc4c3C[C@@H]2C1=O` (stereo partly drawn), the inhibition – broadly, the change of the read-out against control, counted positive when it falls – came to 9.4%.

Compound `CN1CC(=O)N2[C@H](c3ccc4c(c3)OCO4)c3[nH]c4ccccc4c3C[C@@H]2C1=O` registered an inhibition of 0%.

The compound `NC(=O)[C@H]1Cc2c([nH]c3ccccc23)[C@H](c2ccc3c(c2)OCO3)N1` yielded an inhibition of 0%.

The compound `CC1NC(C(N)=O)Cc2c1[nH]c1ccccc21` (stereo not drawn) yielded an inhibition of 13.3%.

In the case of `NC(=O)[C@H]1Cc2c([nH]c3ccccc23)[C@@H](c2ccc3c(c2)OCO3)N1`, the inhibition was determined as 19.5%.

Turning to `CC(=O)N1CCc2c([nH]c3ccccc23)C1c1ccc2c(c1)OCO2` (stereo not drawn), the inhibition amounted to 17%.

The target of the next data set is T1, Class 1 phosphodiesterase PDEB1 (Trypanosoma brucei). Briefly: Inhibition of Trypanosoma brucei PDEB1 using cAMP as substrate at 10 uM preincubated for 10 mins prior substrate addition by spectrophotometry.
`CN1CC(=O)N2[C@@H](c3ccc4c(c3)OCO4)c3[nH]c4ccc(-c5ccn[nH]5)cc4c3C[C@@H]2C1=O`: the inhibition was found to be 71.8%.

On to `CN1CC(=O)N2[C@H](c3ccc4c(c3)OCO4)c3[nH]c4ccc(Br)cc4c3C[C@@H]2C1=O`, for which the inhibition is 11.8%.

`CN1CC(=O)N2[C@@H](c3ccc4c(c3)OCO4)c3[nH]c4ccc(Br)cc4c3C[C@@H]2C1=O` showed an inhibition of 11.6%.

In turn, `CN1CC(=O)N2[C@H](c3ccc4c(c3)OCO4)c3c(c4ccccc4n3C)C[C@@H]2C1=O` came in with an inhibition of 6.9%.

With `CN1CC(=O)N2[C@@H](c3ccc4c(c3)OCO4)c3[nH]c4ccccc4c3C[C@@H]2C1=O`, the inhibition was 38.8%.

For the compound `CN1CC(=O)N2C(CNC(=O)OCc3ccccc3)c3[nH]c4ccccc4c3C[C@@H]2C1=O` (stereo partly drawn), the inhibition is 21.2%.

For `CN1CC(=O)N2[C@@H](c3ccc4c(c3)OCO4)c3c(c4ccccc4n3C)C[C@@H]2C1=O`, the inhibition was found to be 19.7%.

`NC(=O)[C@H]1Cc2c([nH]c3ccccc23)C(c2cccnc2)N1` (stereo partly drawn) showed an inhibition of 22.6%.

In turn, `Cc1n[nH]cc1C(=O)NCC1c2[nH]c3ccccc3c2C[C@@H]2C(=O)N(C)CC(=O)N12` (stereo partly drawn) displayed an inhibition of 0%.

`CC(=O)NCC1c2[nH]c3ccccc3c2C[C@@H]2C(=O)N(C)CC(=O)N12` (stereo partly drawn) returned an inhibition of 0%.

In turn, `CN1CC(=O)N2C(CNCc3cccnc3)c3[nH]c4ccccc4c3C[C@@H]2C1=O` (stereo partly drawn) gave an inhibition of 6.09%.

Tested on in a further data set: not listed separately
Briefly: Solubility of the compound at higher concentration. It counts as physicochemical.
Take `CN1CC(=O)N2[C@@H](c3ccc4c(c3)OCO4)c3[nH]c4ccc(-c5ccn[nH]5)cc4c3C[C@@H]2C1=O`: the solubility result is given as “Insoluble”.

Source of the values: ChEMBL document CHEMBL2010777, “Synthesis and evaluation of human phosphodiesterases (PDE) 5 inhibitor analogs as trypanosomal PDE inhibitors. Part 2. Tadalafil analogs” (Bioorg Med Chem Lett, 2012).
